In PubChem BioAssay (NCI):
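1) Cells in 96-well plates. 2) Compound, 48 h, 5 concentrations. 3) Linear interpolation between surrounding doses. 4) Unreached endpoint = highest concentration. At the TGI there is no net growth.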

What was measured:
Experiment in all cases: NCI tumour cell line growth inhibition, 48 h
786-0 renal = system: 786-0 renal
A498 renal = system: A498 renal
A549 NSCLC = system: A549 NSCLC
ACHN renal = system: ACHN renal
CAKI-1 renal = system: CAKI-1 renal
CCRF-CEM leukemia = system: CCRF-CEM leukemia
COLO 205 colon = system: COLO 205 colon
DLD-1 colon = system: DLD-1 colon
DMS 114 small cell lung = system: DMS 114 small cell lung
DMS 273 small cell lung = system: DMS 273 small cell lung
EKVX NSCLC = system: EKVX NSCLC
HCC-2998 colon = system: HCC-2998 colon
HCT-116 colon = system: HCT-116 colon
HCT-15 colon = system: HCT-15 colon
HL-60(TB) leukemia = system: HL-60(TB) leukemia
HOP-18 NSCLC = system: HOP-18 NSCLC
HOP-62 NSCLC = system: HOP-62 NSCLC
HOP-92 NSCLC = system: HOP-92 NSCLC
HT29 colon = system: HT29 colon
IGROV1 ovarian = system: IGROV1 ovarian
K-562 leukemia = system: K-562 leukemia
KM12 colon = system: KM12 colon
KM20L2 colon = system: KM20L2 colon
LOX IMVI melanoma = system: LOX IMVI melanoma
LXFL 529 NSCLC = system: LXFL 529 NSCLC
M14 melanoma = system: M14 melanoma
M19-MEL melanoma = system: M19-MEL melanoma
MALME-3M melanoma = system: MALME-3M melanoma
MOLT-4 leukemia = system: MOLT-4 leukemia
NCI-H226 lung = system: NCI-H226 lung
NCI-H23 lung = system: NCI-H23 lung
NCI-H460 lung = system: NCI-H460 lung
NCI-H522 lung = system: NCI-H522 lung
OVCAR-3 ovarian = system: OVCAR-3 ovarian
OVCAR-4 ovarian = system: OVCAR-4 ovarian
OVCAR-5 ovarian = system: OVCAR-5 ovarian
OVCAR-8 ovarian = system: OVCAR-8 ovarian
RPMI-8226 leukemia = system: RPMI-8226 leukemia
RXF 393 renal = system: RXF 393 renal
RXF-631 renal = system: RXF-631 renal
SF-268 CNS = system: SF-268 CNS
SF-295 CNS = system: SF-295 CNS
SF-539 CNS = system: SF-539 CNS
SK-MEL-2 melanoma = system: SK-MEL-2 melanoma
SK-MEL-28 melanoma = system: SK-MEL-28 melanoma
SK-MEL-5 melanoma = system: SK-MEL-5 melanoma
SK-OV-3 ovarian = system: SK-OV-3 ovarian
SN12C renal = system: SN12C renal
SNB-19 CNS = system: SNB-19 CNS
SNB-75 CNS = system: SNB-75 CNS
SNB-78 CNS = system: SNB-78 CNS
SR leukemia = system: SR leukemia
SW-620 colon = system: SW-620 colon
TK-10 renal = system: TK-10 renal
U251 CNS = system: U251 CNS
UACC-257 melanoma = system: UACC-257 melanoma
UACC-62 melanoma = system: UACC-62 melanoma
UO-31 renal = system: UO-31 renal
XF 498 CNS = system: XF 498 CNS
MCF7 breast = system: MCF7 breast
NCI/ADR-RES ovarian = system: NCI/ADR-RES ovarian
P388 leukemia = system: P388 leukemia
P388/ADR leukemia = system: P388/ADR leukemia
SN12K1 renal = system: SN12K1 renal

SMILES: C[N+](C)(C)CC(=O)N/N=C(\C(=O)NC1=C(Cl)C(=O)c2ccccc2C1=O)C(C#N)c1csc(-c2ccc([N+](=O)[O-])cc2)n1 (centres undefined)
- TGI (786-0 renal): > 100 µM
- TGI (A498 renal): > 100 µM
- TGI (A549 NSCLC): > 100 µM
- TGI (ACHN renal): > 100 µM
- TGI (CAKI-1 renal): > 100 µM
- TGI (CCRF-CEM leukemia): > 100 µM
- TGI (COLO 205 colon): > 100 µM
- TGI (DLD-1 colon): > 100 µM
- TGI (DMS 114 small cell lung): > 100 µM
- TGI (DMS 273 small cell lung): > 100 µM
- TGI (EKVX NSCLC): > 100 µM
- TGI (HCC-2998 colon): > 100 µM
- TGI (HCT-116 colon): > 100 µM
- TGI (HCT-15 colon): > 100 µM
- TGI (HL-60(TB) leukemia): > 100 µM
- TGI (HOP-18 NSCLC): > 100 µM
- TGI (HOP-62 NSCLC): > 100 µM
- TGI (HOP-92 NSCLC): > 100 µM
- TGI (HT29 colon): > 100 µM
- TGI (IGROV1 ovarian): > 100 µM
- TGI (K-562 leukemia): > 100 µM
- TGI (KM12 colon): > 100 µM
- TGI (KM20L2 colon): > 100 µM
- TGI (LOX IMVI melanoma): > 100 µM
- TGI (LXFL 529 NSCLC): > 100 µM
- TGI (M14 melanoma): > 100 µM
- TGI (M19-MEL melanoma): > 100 µM
- TGI (MALME-3M melanoma): > 100 µM
- TGI (MOLT-4 leukemia): > 100 µM
- TGI (NCI-H226 lung): > 100 µM
- TGI (NCI-H23 lung): > 100 µM
- TGI (NCI-H460 lung): > 100 µM
- TGI (NCI-H522 lung): > 100 µM
- TGI (OVCAR-3 ovarian): > 100 µM
- TGI (OVCAR-4 ovarian): > 100 µM
- TGI (OVCAR-5 ovarian): > 100 µM
- TGI (OVCAR-8 ovarian): > 100 µM
- TGI (RPMI-8226 leukemia): > 100 µM
- TGI (RXF 393 renal): > 100 µM
- TGI (RXF-631 renal): > 100 µM
- TGI (SF-268 CNS): > 100 µM
- TGI (SF-295 CNS): > 100 µM
- TGI (SF-539 CNS): > 100 µM
- TGI (SK-MEL-2 melanoma): > 100 µM
- TGI (SK-MEL-28 melanoma): > 100 µM
- TGI (SK-MEL-5 melanoma): > 100 µM
- TGI (SK-OV-3 ovarian): > 100 µM
- TGI (SN12C renal): > 100 µM
- TGI (SNB-19 CNS): > 100 µM
- TGI (SNB-75 CNS): > 100 µM
- TGI (SNB-78 CNS): > 100 µM
- TGI (SR leukemia): > 100 µM
- TGI (SW-620 colon): > 100 µM
- TGI (TK-10 renal): > 100 µM
- TGI (U251 CNS): > 100 µM
- TGI (UACC-257 melanoma): > 100 µM
- TGI (UACC-62 melanoma): > 100 µM
- TGI (UO-31 renal): > 100 µM
- TGI (XF 498 CNS): > 100 µM

SMILES: CCOC(=O)C(C)(C)Oc1ccc(/C=C/C(=O)c2ccc(Cl)cc2)cc1
- TGI (786-0 renal): 30.9 µM
- TGI (A498 renal): 52.8 µM
- TGI (A549 NSCLC): > 100 µM
- TGI (CCRF-CEM leukemia): 61.9 µM
- TGI (COLO 205 colon): 53.2 µM
- TGI (DLD-1 colon): 27.9 µM
- TGI (DMS 114 small cell lung): 36.8 µM
- TGI (DMS 273 small cell lung): 34.6 µM
- TGI (EKVX NSCLC): > 100 µM
- TGI (HCT-116 colon): 31.5 µM
- TGI (HCT-15 colon): 34.3 µM
- TGI (HL-60(TB) leukemia): > 100 µM
- TGI (HOP-62 NSCLC): > 100 µM
- TGI (HT29 colon): 29.3 µM
- TGI (IGROV1 ovarian): 35.1 µM
- TGI (K-562 leukemia): 82.2 µM
- TGI (KM20L2 colon): 33.7 µM
- TGI (LOX IMVI melanoma): 30.7 µM
- TGI (LXFL 529 NSCLC): 29.2 µM
- TGI (M14 melanoma): 34.7 µM
- TGI (M19-MEL melanoma): 38.2 µM
- TGI (MALME-3M melanoma): 34.6 µM
- TGI (MOLT-4 leukemia): 76.8 µM
- TGI (NCI-H226 lung): 70.5 µM
- TGI (NCI-H23 lung): 37.1 µM
- TGI (NCI-H460 lung): > 100 µM
- TGI (OVCAR-3 ovarian): 30.4 µM
- TGI (OVCAR-4 ovarian): 32.9 µM
- TGI (OVCAR-8 ovarian): 41.3 µM
- TGI (RPMI-8226 leukemia): 53 µM
- TGI (RXF 393 renal): 30.5 µM
- TGI (RXF-631 renal): 38.5 µM
- TGI (SF-268 CNS): 37.1 µM
- TGI (SF-295 CNS): 41.2 µM
- TGI (SF-539 CNS): 34 µM
- TGI (SK-MEL-2 melanoma): 39 µM
- TGI (SK-MEL-28 melanoma): 34.7 µM
- TGI (SK-MEL-5 melanoma): 28.3 µM
- TGI (SN12C renal): 36 µM
- TGI (SNB-19 CNS): 37.7 µM
- TGI (SNB-75 CNS): 32.6 µM
- TGI (SR leukemia): > 100 µM
- TGI (SW-620 colon): 28 µM
- TGI (TK-10 renal): > 100 µM
- TGI (U251 CNS): 31.9 µM
- TGI (UACC-257 melanoma): 41.4 µM
- TGI (UACC-62 melanoma): 44 µM
- TGI (UO-31 renal): > 100 µM
- TGI (XF 498 CNS): 39.1 µM

SMILES: CC(=O)NC1=C[C@@H]([C@H]2COC(C)(C)O2)OC1=O
- TGI (A498 renal): > 100 µM
- TGI (A549 NSCLC): > 100 µM
- TGI (CAKI-1 renal): > 100 µM
- TGI (CCRF-CEM leukemia): > 100 µM
- TGI (COLO 205 colon): > 100 µM
- TGI (DLD-1 colon): > 100 µM
- TGI (DMS 114 small cell lung): > 100 µM
- TGI (DMS 273 small cell lung): > 100 µM
- TGI (EKVX NSCLC): > 100 µM
- TGI (HCC-2998 colon): > 100 µM
- TGI (HCT-116 colon): > 100 µM
- TGI (HCT-15 colon): > 100 µM
- TGI (HL-60(TB) leukemia): > 100 µM
- TGI (HOP-18 NSCLC): > 100 µM
- TGI (HOP-62 NSCLC): > 100 µM
- TGI (HOP-92 NSCLC): > 100 µM
- TGI (HT29 colon): > 100 µM
- TGI (IGROV1 ovarian): > 100 µM
- TGI (K-562 leukemia): > 100 µM
- TGI (KM12 colon): > 100 µM
- TGI (KM20L2 colon): > 100 µM
- TGI (LOX IMVI melanoma): > 100 µM
- TGI (M19-MEL melanoma): > 100 µM
- TGI (MALME-3M melanoma): > 100 µM
- TGI (MCF7 breast): > 100 µM
- TGI (MOLT-4 leukemia): > 100 µM
- TGI (NCI-H226 lung): > 100 µM
- TGI (NCI-H23 lung): > 100 µM
- TGI (NCI-H460 lung): > 100 µM
- TGI (NCI-H522 lung): > 100 µM
- TGI (NCI/ADR-RES ovarian): > 100 µM
- TGI (OVCAR-3 ovarian): > 100 µM
- TGI (OVCAR-5 ovarian): > 100 µM
- TGI (OVCAR-8 ovarian): > 100 µM
- TGI (P388 leukemia): > 100 µM
- TGI (P388/ADR leukemia): > 100 µM
- TGI (RPMI-8226 leukemia): > 100 µM
- TGI (RXF 393 renal): > 100 µM
- TGI (SF-268 CNS): > 100 µM
- TGI (SF-295 CNS): > 100 µM
- TGI (SF-539 CNS): > 100 µM
- TGI (SK-MEL-2 melanoma): > 100 µM
- TGI (SK-MEL-28 melanoma): > 100 µM
- TGI (SK-MEL-5 melanoma): > 100 µM
- TGI (SK-OV-3 ovarian): > 100 µM
- TGI (SN12C renal): > 100 µM
- TGI (SN12K1 renal): > 100 µM
- TGI (SNB-19 CNS): > 100 µM
- TGI (SNB-75 CNS): > 100 µM
- TGI (SNB-78 CNS): > 100 µM
- TGI (SW-620 colon): > 100 µM
- TGI (U251 CNS): > 100 µM
- TGI (UACC-257 melanoma): > 100 µM
- TGI (UACC-62 melanoma): > 100 µM
- TGI (UO-31 renal): > 100 µM
- TGI (XF 498 CNS): > 100 µM
